Results: the NIST ThermoML archive (doi:10.1016/j.jct.2017.08.004)

Assay: molar heat capacity at constant pressure
Details: 101.33 kPa

OC[C@@H](O)C(O)[C@H](O)CO [D-arabitol]
molar heat capacity at constant pressure [J/K/mol]
Details	Small sample (50 mg) DSC	relaxation calorimetry
250.15 K, Crystal	167.62	–
251.15 K, Crystal	168.09	–
252.02 K, Crystal	–	171.93
252.15 K, Crystal	168.72	–
253.15 K, Crystal	169.42	–
254.15 K, Crystal	170.21	–
255.15 K, Crystal	170.83	–
256.15 K, Crystal	171.49	–
257.15 K, Crystal	172.29	–
258.15 K, Crystal	172.95	–
259.15 K, Crystal	173.8	–
260 K, Crystal	–	176.9
260.15 K, Crystal	174.49	–
261.15 K, Crystal	175.07	–
262.08 K, Crystal	–	178.58
262.15 K, Crystal	175.71	–
263.15 K, Crystal	176.2	–
264.15 K, Crystal	176.94	–
265.15 K, Crystal	177.53	–
266.15 K, Crystal	177.9	–
267.15 K, Crystal	178.76	–
268.15 K, Crystal	179.47	–
269.15 K, Crystal	180.14	–
270 K, Crystal	–	183.17
270.15 K, Crystal	180.88	–
271.15 K, Crystal	181.55	–
272.1 K, Crystal	–	184.8
272.15 K, Crystal	182.34	–
273.15 K, Crystal	183.05	185.17
274.15 K, Crystal	183.84	–
275.15 K, Crystal	184.43	–
276.15 K, Crystal	185.01	–
277.15 K, Crystal	185.89	–
278.15 K, Crystal	186.82	–
279.15 K, Crystal	187.46	–
280 K, Crystal	–	189.54
280.15 K, Crystal	187.87	–
281.15 K, Crystal	188.79	–
282.15 K, Crystal	189.61	–
282.16 K, Crystal	–	190.77
283.15 K, Crystal	190.26	–
284.15 K, Crystal	190.76	–
285.15 K, Crystal	191.48	–
286.15 K, Crystal	192.29	–
287.15 K, Crystal	192.88	–
288.15 K, Crystal	193.55	–
289.15 K, Crystal	194.1	–
290 K, Crystal	–	196
290.15 K, Crystal	195.02	–
291.15 K, Crystal	195.84	–
292.15 K, Crystal	196.49	–
292.31 K, Crystal	–	197.61
293.15 K, Crystal	197.3	–
294.15 K, Crystal	198.27	–
295.15 K, Crystal	198.8	–
296.15 K, Crystal	199.7	–
297.15 K, Crystal	200.51	–
298.15 K, Crystal	201.09	201.35
299.15 K, Crystal	201.8	–
300 K, Crystal	–	202.57
300.15 K, Crystal	202.43	–
301.15 K, Crystal	203.27	–
302.15 K, Crystal	203.89	–
302.32 K, Crystal	–	203.84
303.15 K, Crystal	204.69	–
304.15 K, Crystal	205.64	–
305 K, Crystal	206.38	–
305.15 K, Crystal	206.52	–
306.15 K, Crystal	207.29	–
307.15 K, Crystal	207.99	–
308.15 K, Crystal	209.04	–
309.15 K, Crystal	210.24	–
310 K, Crystal	210.77	–
310.15 K, Crystal	211.11	–
311.15 K, Crystal	212.09	–
312.15 K, Crystal	213.04	–
313.15 K, Crystal	213.93	–
314.15 K, Crystal	214.62	–
315 K, Crystal	215.3	–
315.15 K, Crystal	215.49	–
316.15 K, Crystal	216.44	–
317.15 K, Crystal	217.32	–
318.15 K, Crystal	218.08	–
319.15 K, Crystal	218.98	–
320 K, Crystal	219.92	–
320.15 K, Crystal	219.94	–
321.15 K, Crystal	220.72	–
322.15 K, Crystal	221.63	–
323.15 K, Crystal	222.6	–
324.15 K, Crystal	223.41	–
325 K, Crystal	224.62	–
325.15 K, Crystal	224.24	–
326.15 K, Crystal	225.48	–
327.15 K, Crystal	226.61	–
328.15 K, Crystal	227.57	–
329.15 K, Crystal	228.54	–
330 K, Crystal	229.51	–
330.15 K, Crystal	229.69	–
331.15 K, Crystal	231.05	–
332.15 K, Crystal	232.16	–
333.15 K, Crystal	233.08	–
334.15 K, Crystal	234.14	–
335 K, Crystal	234.75	–
335.15 K, Crystal	235.21	–
336.15 K, Crystal	236.36	–
337.15 K, Crystal	237.46	–
338.15 K, Crystal	238.56	–
339.15 K, Crystal	239.77	–
340 K, Crystal	240.61	–
340.15 K, Crystal	240.89	–
341.15 K, Crystal	242.17	–
342.15 K, Crystal	243.41	–
343.15 K, Crystal	244.65	–
344.15 K, Crystal	245.91	–
345 K, Crystal	247.41	–
345.15 K, Crystal	247.41	–
346.15 K, Crystal	248.94	–
350 K, Crystal	255.58	–
394.05 K, Liquid	448.1	–
394.15 K, Liquid	448.11	–
395 K, Liquid	447.62	–
395.15 K, Liquid	447.51	–
396.15 K, Liquid	447.26	–
397.15 K, Liquid	446.68	–
398.15 K, Liquid	446.29	–
399.15 K, Liquid	446.43	–
400 K, Liquid	446.52	–
400.15 K, Liquid	446.4	–
401.15 K, Liquid	446.31	–
402.15 K, Liquid	446.59	–
403.15 K, Liquid	447.05	–
404.15 K, Liquid	446.97	–
405 K, Liquid	447.4	–
405.15 K, Liquid	447.29	–
406.15 K, Liquid	447.83	–
407.15 K, Liquid	447.84	–
408.15 K, Liquid	448.15	–
409.15 K, Liquid	448.6	–
410 K, Liquid	449.23	–
410.15 K, Liquid	448.95	–
411.15 K, Liquid	449.41	–
412.15 K, Liquid	449.97	–
413.15 K, Liquid	450.76	–
414.15 K, Liquid	451.47	–
415 K, Liquid	452.02	–
415.15 K, Liquid	452.79	–
416.15 K, Liquid	453.35	–
417.15 K, Liquid	453.87	–
418.15 K, Liquid	454.54	–
419.15 K, Liquid	456.24	–
420 K, Liquid	455.76	–
420.15 K, Liquid	456.5	–
421.15 K, Liquid	457.07	–
422.15 K, Liquid	457.63	–
423.15 K, Liquid	457.94	–
424.15 K, Liquid	458.28	–
